Source: ChEMBL document CHEMBL2424529, “Nonpeptidic propargylamines as inhibitors of lysine specific demethylase 1 (LSD1) with cellular activity” (J Med Chem, 2013)

Experiments:
[1] = target: T1, Amine oxidase [flavin-containing] B (Homo sapiens, UniProt P27338); details: 1 h, read-out: INH
T1 sequence (P27338 whole entry): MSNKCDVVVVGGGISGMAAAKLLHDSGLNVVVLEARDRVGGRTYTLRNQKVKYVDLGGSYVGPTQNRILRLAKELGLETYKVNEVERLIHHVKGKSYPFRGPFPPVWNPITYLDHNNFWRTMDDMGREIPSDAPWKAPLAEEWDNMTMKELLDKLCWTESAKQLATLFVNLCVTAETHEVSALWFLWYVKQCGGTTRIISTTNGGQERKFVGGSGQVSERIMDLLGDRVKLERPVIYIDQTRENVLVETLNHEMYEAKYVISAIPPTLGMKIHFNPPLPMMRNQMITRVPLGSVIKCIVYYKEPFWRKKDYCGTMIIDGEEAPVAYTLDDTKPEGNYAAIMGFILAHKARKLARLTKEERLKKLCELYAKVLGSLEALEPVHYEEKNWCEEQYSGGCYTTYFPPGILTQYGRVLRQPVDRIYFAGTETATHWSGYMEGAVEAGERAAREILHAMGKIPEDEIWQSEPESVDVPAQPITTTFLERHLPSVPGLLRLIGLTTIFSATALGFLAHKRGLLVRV
Description: Inhibition of MAOB (unknown origin) using kynuramine as substrate at 10 uM after 1 hr by fluorescence assay relative to control

[2] = target: T2, Lysine-specific histone demethylase 1A (Homo sapiens, UniProt O60341); assay: biochemical; format: cell-based, Sf9
Description: Inhibition of LSD1 (unknown origin) expressed in Sf9 cells using H3K4(me2) as substrate preincubated for 30 mins prior to substrate addition measured after 90 mins by horseradish peroxidase assay

[3] = target: T3, Amine oxidase [flavin-containing] A (Homo sapiens, UniProt P21397); details: 1 h, read-out: INH
T3 sequence (P21397 whole entry): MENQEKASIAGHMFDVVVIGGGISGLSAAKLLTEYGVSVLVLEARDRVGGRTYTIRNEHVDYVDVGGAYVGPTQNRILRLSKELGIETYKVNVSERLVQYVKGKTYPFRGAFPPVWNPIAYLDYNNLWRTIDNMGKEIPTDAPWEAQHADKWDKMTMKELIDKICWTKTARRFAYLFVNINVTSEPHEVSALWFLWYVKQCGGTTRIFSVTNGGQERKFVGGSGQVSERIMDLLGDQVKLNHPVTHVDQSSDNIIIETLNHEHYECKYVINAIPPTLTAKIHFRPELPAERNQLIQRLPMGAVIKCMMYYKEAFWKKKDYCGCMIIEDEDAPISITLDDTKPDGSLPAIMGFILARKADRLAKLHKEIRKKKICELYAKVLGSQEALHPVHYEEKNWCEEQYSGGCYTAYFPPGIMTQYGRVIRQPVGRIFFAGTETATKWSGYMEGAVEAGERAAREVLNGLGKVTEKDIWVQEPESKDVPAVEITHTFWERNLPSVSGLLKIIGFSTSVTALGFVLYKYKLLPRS
Description: Inhibition of MAOA (unknown origin) using kynuramine as substrate at 10 uM after 1 hr by fluorescence assay relative to control

[4] = target: T1, Amine oxidase [flavin-containing] B; details: 1 h, read-out: INH; remark: listed apart in the source
Description: Inhibition of MAOB (unknown origin) using kynuramine as substrate at 100 uM after 1 hr by fluorescence assay relative to control

[5] = target: T2, Lysine-specific histone demethylase 1A; assay: Inhibition of LSD1 (unknown origin) expressed in Sf9 cells using H3K4(me2) as substrate at 200 uM preincubated for 30 mins prior to substrate addition measured after 90 mins by horseradish peroxidase assay relative to control
[6] = target: T3, Amine oxidase [flavin-containing] A; details: 1 h, read-out: INH; remark: listed apart in the source
Description: Inhibition of MAOA (unknown origin) using kynuramine as substrate at 100 uM after 1 hr by fluorescence assay relative to control

[7] = target: T1, Amine oxidase [flavin-containing] B; assay: Inhibition of MAOB (unknown origin) using kynuramine as substrate after 1 hr by fluorescence assay
[8] = target: T1, Amine oxidase [flavin-containing] B; details: 1 h, read-out: INH; remark: listed apart in the source
Description: Inhibition of MAOB (unknown origin) using kynuramine as substrate at 500 uM after 1 hr by fluorescence assay relative to control

[9] = target: T3, Amine oxidase [flavin-containing] A; assay: Inhibition of MAOA (unknown origin) using kynuramine as substrate after 1 hr by fluorescence assay

Structure (SMILES): C#CCN(C)CC(O)COc1ccc2cc(Br)ccc2c1 (stereo unspecified)
- inhibition at 10 µM [1]: 100%

Structure (SMILES): C#CCNCCCC[C@H](NC(=O)c1ccccc1)C(=O)OC(C)(C)C
- IC50 [2]: 144 µM

Structure (SMILES): C#CCNCC(O)COc1ccccc1-c1ccccc1 (stereo unspecified)
- inhibition at 10 µM [3]: 5%
- inhibition at 100 µM [4]: 27%
- inhibition [5]: 36.3%

Structure (SMILES): C#CCN(C)CCCC[C@H](NC(=O)OCc1ccccc1)C(=O)OCc1ccccc1
- inhibition at 100 µM [6]: 36%

Structure (SMILES): C#CCNCCCOc1cccc(NC(=O)c2ccccc2)c1
- inhibition at 10 µM [3]: 62%

Structure (SMILES): C#CCN(C)CC(O)COc1cccc2ccccc12 (stereo unspecified)
- inhibition at 100 µM [4]: 32%

Structure (SMILES): C#CCN(C)CCCOc1cccc(NC(=O)c2ccccc2)c1
- inhibition at 10 µM [3]: 73%
- IC50 [7]: 0.1 µM

Structure (SMILES): C#CCNCCCOc1cccc(C(=O)NCc2ccccc2)c1
- IC50 [7]: 5.7 µM

Structure (SMILES): C#CCN(C)CC(O)COc1ccc(-c2ccccc2)cc1 (stereo unspecified)
- inhibition at 10 µM [1]: 100%

Structure (SMILES): C#CCN(C)CC(O)COc1ccccc1-c1ccccc1 (stereo unspecified)
- inhibition at 100 µM [4]: 30%

Structure (SMILES): OC(CNC1CC1)COc1ccc2cc(Br)ccc2c1 (stereo unspecified)
- inhibition at 10 µM [3]: 100%
- inhibition at 10 µM [1]: 100%
- IC50 [2]: 111 µM

Structure (SMILES): C#CCN(C)CC(O)COc1ccc2ccccc2c1 (stereo unspecified)
- inhibition at 10 µM [1]: 29%

Structure (SMILES): OC(CNC1CC1)COc1ccc2ccccc2c1 (stereo unspecified)
- inhibition at 10 µM [1]: 94%

Structure (SMILES): C#CCNCCCOc1cccc(C(=O)NC(C)C)c1
- inhibition at 100 µM [6]: 100%
- IC50 [7]: 17 µM

Structure (SMILES): OC(CNC1CC1)COc1ccc(-c2ccccc2)cc1 (stereo unspecified)
- inhibition at 10 µM [3]: 100%
- inhibition at 10 µM [1]: 100%

Structure (SMILES): C#CCNCCCC[C@H](NC(=O)OCc1ccccc1)C(=O)OCc1ccccc1
- inhibition at 500 µM [8]: 67%

Structure (SMILES): C#CCNCC(O)COc1ccc2ccccc2c1 (stereo unspecified)
- inhibition at 10 µM [3]: 65%
- inhibition at 10 µM [1]: 19%

Structure (SMILES): CC#CCNCCCC[C@H](NC(=O)c1ccccc1)C(=O)OC(C)(C)C
- inhibition at 100 µM [6]: 45%
- IC50 [2]: 132 µM
- inhibition at 500 µM [8]: 51%

Structure (SMILES): OC(CNC1CC1)COc1ccccc1-c1ccccc1 (stereo unspecified)
- inhibition at 100 µM [4]: 45%

Structure (SMILES): C#CCNCC(O)COc1ccc(-c2ccccc2)cc1 (stereo unspecified)
- IC50 [9]: 0.55 µM
- IC50 [7]: 0.06 µM
